Laboratory results: patent US6825209B2, “Compounds having unique CB1 receptor binding selectivity and methods for their production and use” (Research Triangle Institute, priority 2002, dated 2004)
pEC50, pKi: −log10 of the molar value. Read-outs that look alike come from different tables or passages of the source. Marks after values point to notes of the source that are not given here.

Columns and labels:
CB1 receptor = target: T1, CB1 receptor (Rattus norvegicus, UniProt P20272); assay: Radioligand displacement in whole rat brain (CB1) membrane preparations; type: binding; details: Tables 1 and 2
T1 construct: Whole rat brains or dissected regions from live CD rats; tissue Charles River or Pel-Freez Biologicals; host or cells: whole rat brain (CD rats), P2 membrane
T1 sequence (P20272 whole entry): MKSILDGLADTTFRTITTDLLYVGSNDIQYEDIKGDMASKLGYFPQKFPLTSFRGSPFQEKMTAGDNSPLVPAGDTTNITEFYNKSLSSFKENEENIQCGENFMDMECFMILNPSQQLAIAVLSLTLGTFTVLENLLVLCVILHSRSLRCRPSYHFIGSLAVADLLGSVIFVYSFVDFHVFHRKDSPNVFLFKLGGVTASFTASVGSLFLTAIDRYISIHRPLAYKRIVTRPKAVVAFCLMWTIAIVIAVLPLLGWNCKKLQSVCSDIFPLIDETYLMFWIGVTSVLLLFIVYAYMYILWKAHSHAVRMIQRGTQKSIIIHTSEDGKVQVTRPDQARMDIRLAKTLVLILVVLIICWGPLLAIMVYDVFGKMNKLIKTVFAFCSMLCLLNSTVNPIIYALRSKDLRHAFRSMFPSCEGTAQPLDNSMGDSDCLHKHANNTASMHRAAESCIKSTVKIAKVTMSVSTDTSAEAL
Method in brief: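 Washed P2 membranes from whole rat brain (ca. 0.2 mg/mL) in 50 mM Tris.HCl, 1 mM EDTA, 3 mM MgCl2, pH 7.4 were incubated with radioligand and compound for 1 h at 30 °C, then filtered. IC50 values came from one- or two-site nonlinear fits and were converted to Ki by Cheng-Prusoff. Duplicates were run across 3–6 experiments.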

human CB1 receptor = target: T2, human CB1 receptor (Homo sapiens, UniProt P21554); assay: Radioligand displacement in human CB1 receptor-transfected cells (HEK-293); type: binding
T2 construct: expressed in transfected cells; host or cells: HEK-293
T2 sequence (P21554 whole entry): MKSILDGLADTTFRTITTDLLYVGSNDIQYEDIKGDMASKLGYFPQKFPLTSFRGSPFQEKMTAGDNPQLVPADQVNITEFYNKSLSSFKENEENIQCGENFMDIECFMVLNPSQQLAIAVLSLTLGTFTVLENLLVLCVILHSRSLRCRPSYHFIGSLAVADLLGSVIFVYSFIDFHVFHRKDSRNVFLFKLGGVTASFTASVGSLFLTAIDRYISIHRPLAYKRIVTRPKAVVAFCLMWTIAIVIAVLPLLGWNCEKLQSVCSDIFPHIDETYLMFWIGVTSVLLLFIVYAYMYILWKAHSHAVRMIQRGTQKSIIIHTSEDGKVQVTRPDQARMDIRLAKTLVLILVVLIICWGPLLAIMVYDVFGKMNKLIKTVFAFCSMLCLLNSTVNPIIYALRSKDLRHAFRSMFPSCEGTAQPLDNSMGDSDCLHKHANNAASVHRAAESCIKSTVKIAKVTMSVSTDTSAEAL
Method in brief: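 Radioligand displacement was run on HEK-293 cells expressing human CB1, with incubation and separation as for rat brain membranes. IC50 values came from one- or two-site nonlinear regression and were converted to Ki by Cheng-Prusoff.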

human CB2 receptor = target: T3, human CB2 receptor (Homo sapiens, UniProt P34972); assay: Displacement of 3H-CP55,940 in human CB2 receptor-transfected cells (CHO-K1); type: binding; details: radioligand 3H-CP55940, Tables 6 and 7
T3 construct: expressed in transfected cells; host or cells: CHO-K1
T3 sequence (P34972 whole entry): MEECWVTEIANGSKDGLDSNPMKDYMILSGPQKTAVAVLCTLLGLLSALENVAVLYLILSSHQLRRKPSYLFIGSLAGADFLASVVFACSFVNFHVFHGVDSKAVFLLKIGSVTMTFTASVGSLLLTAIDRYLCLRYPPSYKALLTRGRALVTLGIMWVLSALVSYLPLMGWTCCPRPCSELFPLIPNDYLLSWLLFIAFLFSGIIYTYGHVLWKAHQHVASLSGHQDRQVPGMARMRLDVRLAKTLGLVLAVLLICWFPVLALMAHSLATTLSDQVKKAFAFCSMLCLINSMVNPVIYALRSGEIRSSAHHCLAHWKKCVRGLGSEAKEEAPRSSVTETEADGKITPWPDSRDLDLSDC
Protocol: (§1) Human CB2 receptor affinity. The relative selectivity of the analogs for CB1 versus CB2 receptors varied modestly regardless of the structural modifications examined to date.
Methods—binding assay in transfected cell lines. The methods used for performing binding assays in transfected cells expressing human CB1 or CB2 receptors are those used above. The CB1 receptor involved a HEK-293 expression system whereas the CB2 receptor was expressed in CHO-K1 cells. […] The incubations and separations were then performed as described above for rat brain membrane preparations.
Data analysis. Saturation and displacement data were analyzed by unweighted nonlinear regression of receptor binding data. For displacement studies, curve-fitting and IC50 calculation were done with GraphPad Prism (GraphPad Software, Inc., San Diego, Calif.), which fits the data to one and two-site models and compares the two fits statistically. A similar approach was used for the analysis of isotherm data for calculation of Kd's. A two-site fit was accepted only if it was statistically significant (p<0.05) and the following results were not observed:
IC50 values were then converted to Ki values by reported methods (Cheng and Prusoff, 1973). The statistical evaluation of curve-fitting data allowed for a non-arbitrary conclusion based on the displacement data.

[1] = target: T4, G-protein-linked cannabinoid receptors (Rattus norvegicus, UniProt P20272); assay: GTP-γ-[35S] binding in whole rat brain; type: biochemical; details: for Emax: read-out: Emax, GTP-γ-[35S] in Whole Rat Brain
T4 construct: tissue Charles River or Pel-Freez Biologicals; host or cells: whole rat brain crude membrane homogenate
T4 sequence (P20272 whole entry): as the sequence (P20272 whole entry) above
From the text: Cannabinoid receptor-mediated alteration in GTP-γ-[^35S] binding.
(§2) Introduction. The purpose of this assay was to characterize the functional activity of lead compounds identified by the radioligand competition binding assays described above. Data from the GTP-γ-[^35S] binding assay was used to determine if a compound was an agonist, antagonist or inverse agonist at G-protein-linked cannabinoid receptors. Agonist binding to a G-protein-linked receptor results in an increased affinity of the G-protein α-subunit for GTP relative to GDP. Eventually, an active αGTP complex forms to complete the stimulus-effector coupling. The α-subunit has intrinsic GTPase activity which generates a free α-subunit which can recombine with the β- and γ-subunits readying the G-protein for another signal transduction cycle. In the current assay, GTP-γ-[^35S] cannot be hydrolyzed by the α-subunit. Thus, the amount of bound GTP-γ-[^35S] is a marker for G-protein activation. In this assay, an agonist increases basal GTP-γ-[^35S] binding, an inverse agonist decreases basal binding and basal binding would be unaffected by an antagonist.
Experimental Design. The specific binding of GTP-γ-[^35S], in the absence of test compound, was termed “basal” activity. Test compounds were characterized as agonist, antagonist, or inverse agonist based on their effect on basal activity. […] The concentrations spanned two orders of magnitude because affinity may not be related to efficacy. […] Effects of the test compounds are reported as the percent change from basal. More thorough dose-response analysis may be run to determine, for example, if a compound is a full or partial agonist.
Methods. […] In a final volume of 0.5 mL, each assay tube contained: 0.02 mg crude membrane homogenate (0.1 mL), 200 μM GDP (0.05 mL; to reduce basal G-protein activity), 0.1 nM GTP-γ-[^35S] (0.05 mL) and several concentrations of test compound (0.05 mL) or an equivalent volume of vehicle (used for determination of total binding). Nonspecific binding was determined in the presence of 100 μM unlabeled GTP-γ-S (0.05 mL). Duplicate samples were incubated for 1 h at 30° C. Since this assay is amenable for use with high throughput screening methods, the binding assays were run using a 96-well plate format. Specific binding was calculated as total binding-nonspecific binding.

CB1 versus CB2 receptors = assay: Relative selectivity of the analogs for CB1 versus CB2 receptors; details: CB1 versus CB2 binding, Tables 1, 6 and 7
From the text: as §1

[2] = target: T5, CB1 (human) clone receptors (Homo sapiens, UniProt P21554); assay: GTP-γ-[35S] binding in CB1 (human) clone receptors; type: biochemical; details: assay run in CB1 (human) clone receptors
T5 construct: expressed in transfected cells
T5 sequence (P21554 whole entry): as the sequence (P21554 whole entry) above
From the text: Cannabinoid receptor-mediated alteration in GTP-γ-[^35S] binding. In addition to assessing CB1 and CB2 receptor affinities, all of the compounds have been screened in the GTP-γ-[^35S] assay to begin characterization of the compounds as agonists, partial agonists, antagonists or inverse agonists.
as §2, with “In the current assay, GTP-γ-[^35S] cannot be hydrolyzed by the α-subunit. Thus, the amount of bound GTP-γ-[^35S] is a marker for G-protein activation. In this assay, an agonist increases basal GTP-γ-[^35S] binding, an inverse agonist decreases basal binding and basal binding would be unaffected by an antagonist.” left out
Methods. Binding was determined using membrane homogenates from whole brain The assays were conducted as previously described (Sim et al. 1996) on brain tissue prepared as described above. […] Nonspecific binding was determined in the presence of 100 μM unlabeled GTP-γ-S (0.05 mL). […] Specific binding was calculated as total binding-nonspecific binding.

[3] = read-out: Ki, displacement of 3H-CP55940, whole rat brain membranes, radioligand 3H-CP55940
[4] = read-out: Ki, displacement of 3H-SR141716A, whole rat brain membranes, radioligand 3H-SR141716A
[5] = whole rat brain membranes, radioligand 3H-CP55940
[6] = whole rat brain membranes, radioligand 3H-SR141716A
[7] = Ki, displacement of 3H-CP55940, human CB1 transfected cells, radioligand 3H-CP55940, Table 3
[8] = Ki, displacement of 3H-SR141716A, human CB1 transfected cells, radioligand 3H-SR141716A, Table 3
[9] = human CB1 transfected cells, radioligand 3H-CP55940, Table 3
[10] = human CB1 transfected cells, radioligand 3H-SR141716A, Table 3
[11] = human CB1 transfected cells, radioligand 3H-WIN55212-2, Table 3
[12] = read-out: Ki, displacement of 3H-CP55940, human CB2 transfected cells
[13] = whole rat brain membranes, effects reported as percent change from basal
[14] = whole rat brain membranes, inverse agonist/antagonist activity, read-out: EC50, GTP-γ-[35S] in Whole Rat Brain

| pKi (CB1 receptor; [3]) | pKi (CB1 receptor; [4]) | Max. Disp. %, 3H-CP55940 (CB1 receptor; [5]) [%] | Max. Disp. %, 3H-SR141716A (CB1 receptor; [6]) [%] | pKi (human CB1 receptor; [7]) | pKi (human CB1 receptor; [8]) | Max. Disp. %, 3H-CP55940 (human CB1 receptor; [9]) [%] | Max. Disp. %, 3H-SR141716A (human CB1 receptor; [10]) [%] | Max. Disp. %, 3H-WIN55212-2 (human CB1 receptor; [11]) [%] | Max. Disp. %, 3H-CP55940 (human CB2 receptor; human CB2 transfected cells) [%] | pKi (human CB2 receptor; [12]) | Emax [1, 13] [%] | pEC50 [1, 14] | SMILES | further results |
| --- | --- | --- | --- | --- | --- | --- | --- | --- | --- | --- | --- | --- | --- | --- |
| 7.52 | 7.63 | 97.4 | 100 | 7.47 | 8.22 | 81.9 | 93.4 | 73.3 | 68.3 | 5.53 | -35.7 | 4.95 | CCCNC(=O)c1nn(-c2ccc(Cl)cc2Cl)c(-c2ccc(Cl)cc2)c1C [MF9725-55C] |  |
| 7.33 | 7.21 | 91.4 | 100 | 6.86 | 7.45 | 66.7 | 95.3 | 78.8 | 59.6 | 5.51 | -46.9 | 4.52 | CCNC(=O)c1nn(-c2ccc(Cl)cc2Cl)c(-c2ccc(Cl)cc2)c1C [MF9725-54C] | pKi (human CB1 receptor; Ki, displacement of 3H-WIN55212-2, human CB1 transfected cells, radioligand 3H-WIN55212-2, Table 3): 6.73 |
| 6.41 | 6.46 | 73.2 | 85.5 |  |  |  |  |  | 33.3 | 5.37 | -76.5 |  | Cc1c(C(=O)NCCO)nn(-c2ccc(Cl)cc2Cl)c1-c1ccc(Cl)cc1 [MF9725-93-31] | pEC50 ([1]; whole rat brain membranes, value above highest concentration tested (footnote), read-out: EC50, GTP-γ-[35S] in Whole Rat Brain, value is above highest concentration on displacement curve): ≤ 2.78; CB1 selectivity (CB1 versus CB2) (CB1 versus CB2 receptors): 10 fold |

| SMILES | pKi (CB1 receptor; [3]) | pKi (CB1 receptor; [4]) | Max. Disp. %, 3H-CP55940 (CB1 receptor; [5]) [%] | Max. Disp. %, 3H-SR141716A (CB1 receptor; [6]) [%] | pKi (human CB1 receptor; [7]) | pKi (human CB1 receptor; [8]) | Max. Disp. %, 3H-CP55940 (human CB1 receptor; [9]) [%] | Max. Disp. %, 3H-SR141716A (human CB1 receptor; [10]) [%] | Max. Disp. %, 3H-WIN55212-2 (human CB1 receptor; [11]) [%] | Max. Disp. %, 3H-CP55940 (human CB2 receptor; human CB2 transfected cells) [%] | pKi (human CB2 receptor; [12]) | Emax [1, 13] [%] | pEC50 [1, 14] | further results |
| --- | --- | --- | --- | --- | --- | --- | --- | --- | --- | --- | --- | --- | --- | --- |
| CCCCCCCCNC(=O)c1nn(-c2ccc(Cl)cc2Cl)c(-c2ccc(Cl)cc2)c1C [MF9879-164-28] |  |  | 80.2 | 75.2 |  |  |  |  |  | 45.3 |  |  |  | pKi (CB1 receptor; Ki, displacement of 3H-CP55940, whole rat brain membranes, radioligand 3H-CP55940): 6.87; pKi (CB1 receptor; Ki, displacement of 3H-SR141716A, whole rat brain membranes, radioligand 3H-SR141716A): 7.43; pKi (CB1 receptor; Ki, displacement of 3H-WIN55212-2, whole rat brain membranes, radioligand 3H-WIN55212-2): 7.44; Max. Disp. %, 3H-WIN55212-2 (CB1 receptor; whole rat brain membranes, radioligand 3H-WIN55212-2): 68.4%; Max. Disp. %, 3H-CP55940 (human CB1 receptor): 70.6%; Max. Disp. %, 3H-SR141716A (human CB1 receptor): 67.8%; Max. Disp. %, 3H-WIN55212-2 (human CB1 receptor): 35.2%; pKi (human CB1 receptor; Ki, displacement of 3H-CP55940): 6.54; pKi (human CB1 receptor; Ki, displacement of 3H-SR141716A): 7.35; pKi (human CB1 receptor; Ki, displacement of 3H-WIN55212-2): 6.57; pKi (human CB2 receptor; Ki, displacement of 3H-CP55940, human CB2 transfected cells): 4.01; pEC50 [1]: ≤ 3.17; Emax [1]: -21.3% |
| CCOC(=O)c1nn(-c2ccc(Cl)cc2Cl)c(-c2ccc(Cl)cc2)c1C [SH9631-56] | 7.50 | 7.54 | 91.7 | 96.9 |  |  | 91.0 |  |  | 51.4 | 5.36 |  |  | pKi (human CB1 receptor; read-out: Ki, displacement of 3H-CP55940): 7.35; pEC50 [2]: 6.71; Emax, GTP-γ-[35S] ([2]; percent change from basal): −18.4^c |
